Values of other authors as cited in paper PMC10425210 (The Journal of Clinical Investigation, 2023).

Assays:
[1] = design: method as in PMID 29008798; details: cited from earlier work
SHIV109CP3 = system: SHIV109CP3; design: method as in PMID 31175822; details: cited from earlier work

SMILES: C#C[C@]1(CO)O[C@@H](n2cnc3c(N)nc(F)nc32)C[C@@H]1O [islatravir]
- adverse finding during clinical development [1]: unanticipated lymphopenia
- prevention of infection (SHIV109CP3): proven efficacy at preventing infection
